Data as given in US20090143279A1 (priority 2007, published 2009).
Read-outs that look alike come from different tables or passages of the source.

Tests used:
[1] = system: mitochondrial membrane potential; assay type: cell-based, mouse
reactive oxygen species = assay type: cell-based, mouse
OXPHOS gene expression = assay type: cell-based, mouse
nuOXPHOS transcripts = assay type: cell-based, mouse
mtOXPHOS transcripts = assay type: cell-based, mouse
cytochrome c = assay type: cell-based, mouse
[2] = system: cellular dehydrogenase activity
[3] = normalized composite Z-score vs mock-treated (DMSO) wells, Conc 20 μM
[4] = composite Z-score vs mock-treated (DMSO) wells, Conc 20 μM
[5] = composite Z-score vs mock-treated (DMSO) wells, concentration of each compound in μM
[6] = composite Z-score vs DMSO, Conc 20 μM
[7] = composite Z-score vs DMSO wells, Conc 20 μM
[8] = 20 μM, composite Z-score vs DMSO

COC(=O)[C@H](c1ccccc1Cl)N1CCc2sccc2C1 [clopidogrel]
ΔΨm [1]: −0.698
ROS (reactive oxygen species): −0.196
GE-HTS (OXPHOS gene expression): −1.470
nucOX (nuOXPHOS transcripts): −1.328
mitoOX (mtOXPHOS transcripts): −1.441
cyt c (cytochrome c): 0.410
Viability (C2C12 myotubes): −1.134
MTT [2]: −1.447

COc1ccc(-c2coc3c(OC)c(O)ccc3c2=O)cc1 [7-hydroxy-8,4′-dimethoxyisoflavone]
ΔΨm [1, 3]: −0.417
ROS (reactive oxygen species; [3]): 1.404
GE-HTS (OXPHOS gene expression; [3]): −0.962
nucOX (nuOXPHOS transcripts; [3]): −0.994
mitoOX (mtOXPHOS transcripts; [3]): −0.667
cyt c (cytochrome c; [3]): 0.363
Viability (C2C12 myotubes; [3]): −1.022
MTT [2, 3]: −1.073

C=C/C(C)=C\CC1C(C)(O)CCC2C(C)(C)CCCC21C (centres unmarked) [abienol]
ΔΨm [1, 3]: 0.334
ROS (reactive oxygen species; [3]): 2.467
GE-HTS (OXPHOS gene expression; [3]): 0.498
nucOX (nuOXPHOS transcripts; [3]): 0.091
mitoOX (mtOXPHOS transcripts; [3]): 1.214
cyt c (cytochrome c; [3]): 0.211
Viability (C2C12 myotubes; [3]): −0.199
MTT [2, 3]: 0.338

CCN1CCN(C(=O)N[C@@H](C(=O)N[C@@H]2C(=O)N3C(C(=O)O)=C(CSc4nnnn4C)CS[C@H]23)c2ccc(O)cc2)C(=O)C1=O [cefoperazone]
ΔΨm [1, 4]: −0.908
ROS (reactive oxygen species; [4]): −0.295
GE-HTS (OXPHOS gene expression; [4]): 0.130
nucOX (nuOXPHOS transcripts; [4]): 0.013
mitoOX (mtOXPHOS transcripts; [4]): 0.367
cyt c (cytochrome c; [4]): 1.001
Viability (C2C12 myotubes; [4]): 0.097
MTT [2, 4]: −0.793

C/C1=C2/[N-][C@H]([C@H](CC(N)=O)[C@@]2(C)CCC(=O)NC[C@@H](C)OP(=O)([O-])O[C@H]2[C@@H](O)[C@@H](n3cnc4cc(C)c(C)cc43)O[C@@H]2CO)[C@]2(C)N=C(/C(C)=C3N=C(/C=C4N=C1[C@@H](CCC(N)=O)C\4(C)C)[C@@H](CCC(N)=O)[C@]\3(C)CC(N)=O)[C@@H](CCC(N)=O)[C@]2(C)CC(N)=O.[Co] [cobalamine]
ΔΨm [1, 5]: 0.097
ROS (reactive oxygen species; [5]): 2.944
GE-HTS (OXPHOS gene expression; [5]): −0.402
nucOX (nuOXPHOS transcripts; [5]): −0.373
mitoOX (mtOXPHOS transcripts; [5]): −0.393
cyt c (cytochrome c; [5]): −0.617
Viability (C2C12 myotubes; [5]): −0.821
MTT [2, 5]: −1.369

CC(C)CCC[C@@H](C)[C@H]1CC[C@H]2[C@@H]3CC(=O)[C@H]4C[C@@H](O)CC[C@]4(C)[C@H]3CC[C@]12C [5alpha-cholestan-3beta-ol-6-one]
ΔΨm [1, 6]: 0.479
ROS (reactive oxygen species; [6]): 0.397
GE-HTS (OXPHOS gene expression; [6]): −0.731
nucOX (nuOXPHOS transcripts; [6]): −0.603
mitoOX (mtOXPHOS transcripts; [6]): −0.862
cyt c (cytochrome c; [6]): 1.006
Viability (C2C12 myotubes; [6]): −0.430
MTT [2, 6]: 0.811

COc1ccc2c(c1)OCc1c-2oc2cc(OC)ccc12 [dehydrovariabilin]
ΔΨm [1, 6]: 0.951
ROS (reactive oxygen species; [6]): 0.167
GE-HTS (OXPHOS gene expression; [6]): 0.367
nucOX (nuOXPHOS transcripts; [6]): 0.277
mitoOX (mtOXPHOS transcripts; [6]): 0.416
cyt c (cytochrome c; [6]): 0.043
Viability (C2C12 myotubes; [6]): 0.309
MTT [2, 6]: −1.225

CC1(C)C(=O)C=C[C@@]2(C)C1CC(=O)[C@@]1(C)C3=CC(=O)O[C@@H](c4ccoc4)[C@]3(C)CCC12 (some centres unmarked) [7-deacetoxy-7-oxodeoxygedunin]
ΔΨm [1, 4]: 0.757
ROS (reactive oxygen species; [4]): −0.489
GE-HTS (OXPHOS gene expression; [4]): −1.791
nucOX (nuOXPHOS transcripts; [4]): −1.586
mitoOX (mtOXPHOS transcripts; [4]): −1.925
cyt c (cytochrome c; [4]): 0.166
Viability (C2C12 myotubes; [4]): 0.224
MTT [2, 4]: −1.467

CN[C@@H]1[C@@H](O[C@H]2O[C@H](CO)[C@@H](N)[C@H](O)[C@H]2O)OC2C[C@@H](N)[C@@H](O[C@H]3[C@H](O)[C@@H](O)[C@H](N)C[C@@H]3N)OC2[C@@H]1O (some centres unmarked) [apramycin]
ΔΨm [1, 6]: −0.407
ROS (reactive oxygen species; [6]): −0.105
GE-HTS (OXPHOS gene expression; [6]): 0.477
nucOX (nuOXPHOS transcripts; [6]): 0.413
mitoOX (mtOXPHOS transcripts; [6]): 0.494
cyt c (cytochrome c; [6]): 0.223
Viability (C2C12 myotubes; [6]): −1.979
MTT [2, 6]: −0.808

Oc1c(Cl)cc(Cl)c2cccnc12 [chloroxine]
ΔΨm [1, 7]: 1.120
ROS (reactive oxygen species; [7]): −2.934
GE-HTS (OXPHOS gene expression; [7]): −1.089
nucOX (nuOXPHOS transcripts; [7]): −0.461
mitoOX (mtOXPHOS transcripts; [7]): −2.181
cyt c (cytochrome c; [7]): −0.800
Viability (C2C12 myotubes; [7]): −1.392
MTT [2, 7]: −2.014

C=C1CC[C@H](O)C/C1=C/C=C1\CCC[C@]2(C)[C@@H]([C@H](C)/C=C/[C@H](C)C(C)C)CC[C@@H]12 [ergocalciferol]
ΔΨm [1, 8]: −0.449
ROS (reactive oxygen species; [8]): 1.541
GE-HTS (OXPHOS gene expression; [8]): 0.661
nucOX (nuOXPHOS transcripts; [8]): 0.723
mitoOX (mtOXPHOS transcripts; [8]): 0.357
cyt c (cytochrome c; [8]): −0.118
Viability (C2C12 myotubes; [8]): 0.372
MTT [2, 8]: −1.658

C[N+]12CCC(CC1)C(OC(=O)C(O)(c1ccccc1)c1ccccc1)C2 (centres unmarked) [clidinium]
ΔΨm [1]: −0.715
ΔΨm [1, 8]: −0.772
ROS (reactive oxygen species): 1.870
ROS (reactive oxygen species; [8]): 1.625
GE-HTS (OXPHOS gene expression): −0.462
GE-HTS (OXPHOS gene expression; [8]): −0.556
nucOX (nuOXPHOS transcripts): −0.202
nucOX (nuOXPHOS transcripts; [8]): −0.503
mitoOX (mtOXPHOS transcripts): −0.903
mitoOX (mtOXPHOS transcripts; [8]): −0.602
cyt c (cytochrome c): 0.176
cyt c (cytochrome c; [8]): −0.062
Viability (C2C12 myotubes): 0.172
Viability (C2C12 myotubes; [8]): −0.084
MTT [2]: −2.250
MTT [2, 8]: −1.393

C[C@]12CC[C@H]3[C@@H](CC[C@]4(O)C[C@@H](O)CC[C@]34C(=O)O)[C@@]1(O)CC[C@@H]2C1=CC(=O)OC1 [strophanthidinic acid]
ΔΨm [1, 3]: −0.875
ROS (reactive oxygen species; [3]): −0.059
GE-HTS (OXPHOS gene expression; [3]): −0.553
nucOX (nuOXPHOS transcripts; [3]): −0.400
mitoOX (mtOXPHOS transcripts; [3]): −0.726
cyt c (cytochrome c; [3]): 0.166
Viability (C2C12 myotubes; [3]): −0.745
MTT [2, 3]: −1.651

C=C1CCC2C(CC2(C)C)C(=C)CCC1=NO (centres unmarked) [5-hydroxyiminoisocaryophyllene]
ΔΨm [1, 4]: 0.413
ROS (reactive oxygen species; [4]): 0.922
GE-HTS (OXPHOS gene expression; [4]): −0.023
nucOX (nuOXPHOS transcripts; [4]): −0.273
mitoOX (mtOXPHOS transcripts; [4]): 0.421
cyt c (cytochrome c; [4]): 0.117
Viability (C2C12 myotubes; [4]): 0.181
MTT [2, 4]: 1.325

COC(=O)[C@@H]1[C@H]2C[C@H]3c4[nH]c5ccccc5c4CCN3C[C@@H]2CC[C@@H]1O [yohimbine]
ΔΨm [1]: −1.197
ROS (reactive oxygen species): 0.159
GE-HTS (OXPHOS gene expression): −0.041
nucOX (nuOXPHOS transcripts): 0.169
mitoOX (mtOXPHOS transcripts): −0.471
cyt c (cytochrome c): 0.699
Viability (C2C12 myotubes): −0.860
MTT [2]: −1.915

CC(=O)OC1CC[C@@]2(C)C(CC[C@H]3[C@@H]4CC=C(C(C)=O)[C@@]4(C)C(=O)C[C@@H]32)C1 (some centres unmarked) [3-acetoxypregn-16-en-12,20-dione]
ΔΨm [1, 4]: −0.216
ROS (reactive oxygen species; [4]): 0.201
GE-HTS (OXPHOS gene expression; [4]): −0.885
nucOX (nuOXPHOS transcripts; [4]): −0.775
mitoOX (mtOXPHOS transcripts; [4]): −0.958
cyt c (cytochrome c; [4]): −0.050
Viability (C2C12 myotubes; [4]): −0.873
MTT [2, 4]: −0.553

COc1cc(O)c(C(=O)c2ccccc2)cc1O [cearoin]
ΔΨm [1, 4]: −1.006
ROS (reactive oxygen species; [4]): −2.274
GE-HTS (OXPHOS gene expression; [4]): −1.672
nucOX (nuOXPHOS transcripts; [4]): −1.568
mitoOX (mtOXPHOS transcripts; [4]): −1.603
cyt c (cytochrome c; [4]): −1.478
Viability (C2C12 myotubes; [4]): −1.078
MTT [2, 4]: −2.331

C[C@H]1CC[C@]2(NC1)O[C@H]1C[C@H]3[C@@H]4CC[C@H]5C[C@@H](O)CC[C@]5(C)[C@H]4CC[C@]3(C)[C@H]1[C@@H]2C [tomatidine]
ΔΨm [1, 6]: −0.425
ROS (reactive oxygen species; [6]): 1.323
GE-HTS (OXPHOS gene expression; [6]): −1.375
nucOX (nuOXPHOS transcripts; [6]): −1.473
mitoOX (mtOXPHOS transcripts; [6]): −0.857
cyt c (cytochrome c; [6]): 0.913
cyt c (cytochrome c; [5]): 1.135
Viability (C2C12 myotubes; [6]): 0.490
MTT [2, 6]: −1.376

COc1cc(C=CC=O)cc(OC)c1OC [3,4,5-trimethoxycinnamaldehyde]
ΔΨm [1, 6]: 0.647
ROS (reactive oxygen species; [6]): −0.228
GE-HTS (OXPHOS gene expression; [6]): −0.523
nucOX (nuOXPHOS transcripts; [6]): −0.724
mitoOX (mtOXPHOS transcripts; [6]): 0.025
cyt c (cytochrome c; [6]): −0.808
Viability (C2C12 myotubes; [6]): 1.061
MTT [2, 6]: 1.043
